Test [1] in a line: DPPH radical scavenging activity. The class given is biochemical. Particulars: for DPPH radical scavenging activity IC50: Table 3. The procedure:
In order to extract an effective ingredient having an anti-oxidant activity from Cercis chinensis, an experiment was performed following the procedure represented in a schematic diagram of FIG. 1. Particularly, 1 kg of leaves and stems of Cercis chinensis, dried in shadow, were grinded to powder using a pulverizer, which was extracted by ethanol (EtOH) at room temperature twice at intervals of two weeks. For the extraction, ethanol solutions were prepared by adding ethanol gradually, 10% at a time, from 0% to 100%. The prepared ethanol solutions were used for the extraction. […] But, it looses absorbance when being scavenged. Based on that point, an anti-oxidant activity can be measured using DPPH. […] Then, each solution was distributed into a 96 well plate by 10 μl each, into which 190 μl of DPPH(Sigma, St. Louis, Mo, USA) solution whose ethanol concentration was 2×10^−4 M/ml was added. The plate was just left at room temperature for 30 minutes. Finally, OD517 was measured at 517 nm. For a control, DMSO was added instead of the sample, and changes of optical density were investigated. […] DDPH Radical Scavenging Activity (%)=(Acontrol−Asample)/(Acontrol)×100 <Mathematica Formula 1>
Acontrol: Optical density of control group (sample was not added),
Asample: Optical density of experimental group (sample was added).
In order to identify a fraction having an anti oxidant activity among hexane Fr, EtOAc Fr and BuOH Fr obtained above, a DPPH radical scavenging activity was measured using each extract of each fraction following the method used above. At this time, vitamin E, known to have high DPPH radical scavenging activity, was used as a comparing group.
At this time, BHA (tert-butyl-4 hydroxyanisole) and α-tocopherol, synthetic anti-oxidant agents, were used as positive controls.
For orientation: The DPPH test is a chemical assay of radical scavenging.

The nature of test [2]: Hydroxyl radical scavenging activity (deoxyribose/TBA, method of Halliwell). Format: biochemical. Particulars: for Hydroxyl radical scavenging activity (%): 10 μg of sample, total volume 1 ml. As for the experimental part: Hydroxyl radical (HO.) is generated by the reaction of a metal ion or a superoxide radical. Owing to its strong reactivity, hydroxyl radical causes oxidative damages to DNA, protein and lipid in vivo. Nitric oxide (NO.) is reacted with a superoxide radical to generate a peroxy nitrite (ONOO—), also having strong reactivity. […] Particularly, each compound was mixed with 10 μg of a sample dissolved in DMSO, phosphate buffer (20 mM, pH 7.4) 5.6 mM deoxyribose, 0.1 mM FeCl3, 1 mM H2O2 and 0.1 mM ascorbic acid, making total volume 1 ml, which was then reacted at 37° C. for 60 minutes. 250 μl of 20% TCA and 250 μl of 1% TBA solution (dissolved in 50 mM NaOH) were added to the reaction solution, followed by thermal reaction at 95° C. for 5 minutes. After completing the reaction, OD532 was measured. Hydroxyl radical scavenging activity was calculated by the below
<Mathematical Formula 3>. BHA and α-tocopherol were used for a positive control. Hydroxyl Radical Scavenging Activity (%)=(Acontrol−Asample)/(Acontrol−Ablank)×100 <Mathematical Formula 3>
Acontrol: Optical density of control group well (sample was not added),
Asample: Optical density of experimental group well (sample was added),
Ablank: Optical density of well not added with sample, TCA and TBA

A short description of test [3]: Nitric oxide scavenging activity. More on the design: Nitric oxide scavenging activity (%): concentration or dose not given beside the values. The class given is biochemical.
Test [4] in a line: Superoxide radical scavenging activity (xanthine/xanthine oxidase, NBT). As to conditions: Table 6. Format: biochemical. The procedure:
Superoxide radical (O^2−) itself has a little reactivity, but is easily changed into H2O2 that generates hydroxyl radical having strong reactivity or is reacted with nitric oxide (NO.) to generate peroxy nitrite (ONOO^−) having strong reactivity, too. Thus, it might be a reason for oxidation of SH-group, nitration of protein tyrosine, lipid peroxidation and DNA damage. […] Basically, measurement of superoxide radical scavenging activity was performed by investigating the activity of superoxide dismutase (SOD), an enzyme scavenging superoxide by dismutation of the same. In the present invention, an activity of a sample to inhibit superoxide production by the enzyme reaction of xanthine/xanthine oxidase and its another activity to inhibit reaction (NBT+20^2−→NBTH2+2O2) generating formazan by reduction of nitro blue tetrazolium (referred as ‘NBT’ hereinafter) were measured. Particularly, wells of a 96-well plate were supplemented with 50 μl of 4 mM xanthine (Sigma), 50 μl of […] NBT (Sigma), 50 μl of 50 mM phosphate buffer (pH 7.8, 1 mM EDTA) and 10 μl of each sample, into which 40 μl of xanthine oxidase was added to induce a reaction. After the reaction was completed, each reaction solution was collected as scheduled, and OD550 was measured with an ELISA reader. […] Superoxide Radical Scavenging Activity (%)=(Acontrol−Asample)/(Acontrol−Ablank)×100 <Mathematical Formula 4> […]

The subject of test [5] is HEK-N/F cells. The test can be described thus: Protection of cells from oxidative damage induced by t-butylhydroperoxide. Format: cell-based, human. As to conditions: 1.5 mM t-butylhydroperoxide 3 hours; for TBARS (pmol/mg protein): compound 50.0 µg/ml. As for the experimental part:
t-butylhydroperoxide is metabolized into a free radical intermediate as it comes in a cell, so that it causes lipid peroxidation, resulting in cell damage. This phenomenon is similar to that caused by oxidataive stress accumulated in cells and tissues. […] HEK-N/F, an epidermal cell line of a newborn baby, was treated with 1.5 mM of t-butylhydroxyperoxide for 3 hours.

In test [6] the test system is rat brain homogenates. The test can be described thus: Lipid peroxidation inhibitory activity (Fe2+/ascorbic acid, TBA method). As to conditions: Table 4.

For `COc1cc(C2c3c(cc(OC)c(O)c3OC)CC(CO)C2CO[C@@H]2O[C@H](CO)[C@@H](O)[C@H](O)[C@H]2O)cc(OC)c1O` (single isomer, unassigned; (+)) [Chemical Formula 20, (+)-lyoniresiol 3a-O-β-D-glucopyranoside], the “DPPH radical scavenging activity IC50” value in test [1] was found to be 42.6 ± 3.1 µg/mL. In addition, the “Hydroxyl radical scavenging activity (%)” value in test [2] is 8.1%. Besides, the “Nitric oxide scavenging activity (%)” value in test [3] is on record as 0.8 ± 0.8%. In test [4], the “Superoxide radical scavenging activity IC50” value was over 100 µg/mL. In addition, in test [5], the “Cell survival rate (%)” value is reported as 12.9 ± 2.1% and the “TBARS (pmol/mg protein)” value is given as 7635.7 ± 631.2 pmol/mg protein. The “Lipid Peroxidation Inhibitory Activity IC50” value in test [6] came out at 39.10 ± 3.11 µg/mL.
Turning to `COc1cc(C2c3c(cc(OC)c(O)c3OC)CC(CO)C2CO[C@@H]2OC[C@@H](O)[C@H](O)[C@H]2O)cc(OC)c1O` (single isomer, unassigned; (-)) [Chemical Formula 19, (−)-lyoniresinol 3a-O-β-D-xylopyranoside], the “DPPH radical scavenging activity IC50” value in test [1] stood at 45.7 ± 4.0 µg/mL. Besides, the “Hydroxyl radical scavenging activity (%)” value in test [2] was 7.3%. In addition, in test [3], the “Nitric oxide scavenging activity (%)” value is 0.8 ± 0.6%. In test [4], the “Superoxide radical scavenging activity IC50” value is over 100 µg/mL. Besides, in test [5], the “Cell survival rate (%)” value is 13.5 ± 2.0% and the “TBARS (pmol/mg protein)” value was found to be 5981.1 ± 412.6 pmol/mg protein. In addition, in test [6], the “Lipid Peroxidation Inhibitory Activity IC50” value turned out to be 37.42 ± 2.06 µg/mL.
In the case of `O=C(O)/C=C/c1ccc(O)c(O)c1` [Caffeic acid, caffeic acid, reference compound], the “Superoxide radical scavenging activity IC50” value in test [4] worked out at 11.0 ± 1.8 µg/mL.
For the compound `O=C(/C=C/c1ccc(O)cc1)c1ccc(O)cc1O` [Chemical Formula 1, isoliquiritigenin], in test [5], the “Cell survival rate (%)” value is given as 13.9 ± 12.6% and the “TBARS (pmol/mg protein)” value was 5118.1 ± 410.5 pmol/mg protein. Also, in test [6], the “Lipid Peroxidation Inhibitory Activity IC50” value turned out to be 3.33 ± 0.50 µg/mL.
As for `COc1ccc(/C=C/C(=O)c2ccc(O)cc2O)cc1` [Chemical Formula 2, 2′,4′-dihydroxy-4-methoxychalcone], the “DPPH radical scavenging activity IC50” value in test [1] is over 50 µg/mL. The “Hydroxyl radical scavenging activity (%)” value in test [2] was determined as 4.5%. Further, the “Superoxide radical scavenging activity IC50” value in test [4] was 49.8 ± 3.1 µg/mL. In test [5], the “Cell survival rate (%)” value worked out at 16.2 ± 3.2% and the “TBARS (pmol/mg protein)” value is reported as 3449.7 ± 305.8 pmol/mg protein. In addition, in test [6], the “Lipid Peroxidation Inhibitory Activity IC50” value was 12.81 ± 1.86 µg/mL.
Turning to `O=C1C[C@@H](c2ccc(O)cc2)Oc2cc(O)ccc21` [Chemical Formula 3, liquiritigenin], the “DPPH radical scavenging activity IC50” value in test [1] was over 50 µg/mL. The “Hydroxyl radical scavenging activity (%)” value in test [2] was found to be 3.2%. For the same compound, in test [4], the “Superoxide radical scavenging activity IC50” value was 59.2 ± 3.8 µg/mL. In test [5], the “Cell survival rate (%)” value is reported as 12.1 ± 1.0% and the “TBARS (pmol/mg protein)” value was 8255.1 ± 576.4 pmol/mg protein. For the same compound, the “Lipid Peroxidation Inhibitory Activity IC50” value in test [6] stood at 6.05 ± 0.99 µg/mL.
In the case of `Oc1ccc(C=Cc2cc(O)cc(O)c2)cc1` [Chemical Formula 4, resveratrol], in test [5], the “Cell survival rate (%)” value is recorded as 18.1 ± 1.6% and the “TBARS (pmol/mg protein)” value amounted to 2792.4 ± 259.1 pmol/mg protein. In addition, the “Lipid Peroxidation Inhibitory Activity IC50” value in test [6] came to 0.89 ± 0.10 µg/mL.
For the compound `O=C(O)c1cc(O)c(O)c(O)c1` [Chemical Formula 6, gallic acid], in test [1], the “DPPH radical scavenging activity IC50” value was determined as 5.1 ± 0.4 µg/mL. Also, in test [2], the “Hydroxyl radical scavenging activity (%)” value is reported as 33.6%. In addition, the “Nitric oxide scavenging activity (%)” value in test [3] was determined as 25.0 ± 2.0%. Moreover, in test [5], the “Cell survival rate (%)” value is recorded as 41.5±3.1% and the “TBARS (pmol/mg protein)” value is reported as 1245.7 ± 112.4 pmol/mg protein. Further, the “Lipid Peroxidation Inhibitory Activity IC50” value in test [6] amounted to 6.80 ± 0.63 µg/mL.
In the case of `COC(=O)c1cc(O)c(O)c(O)c1` [Chemical Formula 7, methyl gallate], the “DPPH radical scavenging activity IC50” value in test [1] came to 5.3 ± 0.3 µg/mL. In test [2], the “Hydroxyl radical scavenging activity (in words)” value was “remarkably higher hydroxyl radical scavenging activities” and the “Hydroxyl radical scavenging activity (%)” value is recorded as 43.8%. In test [3], the “Nitric oxide scavenging activity (%)” value came to 32.6 ± 2.8%. Further, the “Superoxide radical scavenging activity IC50” value in test [4] worked out at 16.5 ± 1.4 µg/mL. Besides, in test [5], the “Cell survival rate (%)” value was determined as 43.0±5.6% and the “TBARS (pmol/mg protein)” value is reported as 1024.4 ± 91.9 pmol/mg protein. For the same compound, the “Lipid Peroxidation Inhibitory Activity IC50” value in test [6] was determined as 7.05 ± 0.87 µg/mL.
`C[C@@H]1O[C@@H](Oc2c(-c3ccc(O)cc3)oc3cc(O)cc(O)c3c2=O)[C@H](O)[C@H](O)[C@H]1O` [Chemical Formula 10, afzelin]: in test [5], the “Cell survival rate (%)” value is on record as 16.8 ± 1.3% and the “TBARS (pmol/mg protein)” value is given as 3295.1 ± 304.5 pmol/mg protein.
Regarding `C[C@@H]1O[C@@H](Oc2c(-c3ccc(O)c(O)c3)oc3cc(O)cc(O)c3c2=O)[C@H](O)[C@H](O)[C@H]1O` [Chemical Formula 11, quercitrin], the “TBARS (pmol/mg protein)” value in test [5] was determined as 2217.2 ± 200.3 pmol/mg protein.
As for `COc1cc(-c2oc3cc(O)cc(O)c3c(=O)c2O[C@@H]2O[C@H](CO[C@@H]3O[C@@H](C)[C@H](O)[C@@H](O)[C@H]3O)[C@@H](O)[C@H](O)[C@H]2OC(=O)c2cc(O)c(O)c(O)c2)cc(OC)c1O` [Chemical Formula 15, syringetin-3-O-(2″-O-galloyl)-rutinoside], the “DPPH radical scavenging activity IC50” value in test [1] was found to be 29.2 ± 1.8 µg/mL. Moreover, the “Hydroxyl radical scavenging activity (%)” value in test [2] is given as 16.4%. For the same compound, in test [3], the “Nitric oxide scavenging activity (%)” value turned out to be 14.1 ± 1.4%. Moreover, the “Superoxide radical scavenging activity IC50” value in test [4] came to 37.1 ± 2.0 µg/mL. In addition, the “Lipid Peroxidation Inhibitory Activity IC50” value in test [6] was determined as 10.10 ± 1.02 µg/mL.
In the case of `Cc1c(C)c2c(c(C)c1O)CC[C@@](C)(CCC[C@H](C)CCC[C@H](C)CCCC(C)C)O2` [α-tocopherol, reference compound], the “DPPH radical scavenging activity IC50” value in test [1] was found to be 25.4 ± 0.9 µg/mL. Moreover, the “Hydroxyl radical scavenging activity (%)” value in test [2] amounted to 0.8%. In test [6], the “Lipid Peroxidation Inhibitory Activity IC50” value is 6.61 ± 0.95 µg/mL.
On to “tert-butyl-4-hydroxyanisole [BHA, reference compound]”, for which the “DPPH radical scavenging activity IC50” value in test [1] came out at 15.3 ± 0.6 µg/mL. Moreover, in test [2], the “Hydroxyl radical scavenging activity (%)” value is listed as 15.6%. Further, the “Superoxide radical scavenging activity IC50” value in test [4] amounted to 48.8 ± 2.5 µg/mL. The “Lipid Peroxidation Inhibitory Activity IC50” value in test [6] worked out at 0.11 ± 0.02 µg/mL.
In the case of vitamin E [reference compound], the “DPPH radical scavenging IC50” value in test [1] (fractions of the 60% ethanol extract) worked out at 24.9 µg/mL.

Values taken from patent US7763287B2, “Extract of Cercis chinensis having anti-oxidant activity and anti-aging activity, and cosmetical composition containing the extract for anti-oxidation, skin-aging protection and wrinkle improvement” (Hankook Pharm. Co., Inc., priority 2002, dated 2010).
